Experimental data reported in the Kinase Knowledgebase extract (Sharma et al. 2016).

What follows are compounds tested against CDK2 (human) (UniProt P24941) (assay: Enzyme Assay).

IC50, < 1 µM:
CC(C)c1n[nH]cc1-c1ccnc(NC2CCN(C)CC2)n1
CC(C)c1n[nH]cc1-c1ccnc(NC2CCN(Cc3ccccc3)CC2)n1
CC(C)c1n[nH]cc1-c1ccnc(NC2CCNCC2)n1
CC(C)c1n[nH]cc1-c1ccnc(NC2CCN(C(=O)OC(C)(C)C)CC2)n1
COCC(C)Nc1nccc(-c2c[nH]nc2C(C)C)n1 (stereo not drawn)
c1ccc2c(c1)CC(Nc1cc(-c3cn[nH]c3C3CCCCCC3)ccn1)C2
c1ccc2c(c1)CC(Nc1cc(-c3cn[nH]c3C3CC3)ccn1)C2
CCC(C)Nc1cc(-c2cn[nH]c2C(C)C)ccn1 (stereo not drawn)
CC(C)c1n[nH]cc1-c1ccnc(NCc2ccccc2Cl)n1
CC(C)c1n[nH]cc1-c1ccnc(NC2CCCCC2C)n1 (stereo not drawn)

IC50, < 0.5 µM:
CC(C)c1n[nH]cc1-c1ccnc(NC2CCN(c3ccccc3)CC2)n1
CC(C)c1n[nH]cc1-c1ccnc(NC2CCc3cc(F)ccc32)n1 (stereo not drawn)
CC(C)c1n[nH]cc1-c1ccnc(NCc2ccccc2F)n1
CC(C)c1[nH]ncc1-c1ccnc(NC2CCCCC2)c1
CC(C)CNc1cc(-c2cn[nH]c2C(C)C)ccn1
c1cc(-c2cn[nH]c2C2CCCC2)cc(NC2CCCC2)n1
c1cc(-c2cn[nH]c2C2CCCC2)cc(NC2CCC2)n1

IC50, < 10 µM:
Cc1ccccc1CNc1cc(-c2cn[nH]c2C2CCCCCC2)ccn1
Cc1n[nH]cc1-c1ccnc(NC2CCc3ccccc32)n1 (stereo not drawn)
Cc1n[nH]cc1-c1ccnc(NCc2cccc(C(F)(F)F)c2)n1
Cc1n[nH]cc1-c1ccnc(NCCc2ccccc2)n1
Cc1n[nH]cc1-c1ccnc(NCc2cccnc2)n1
CC(C)c1n[nH]cc1-c1ccnc(NC(C)c2ccccn2)n1 (stereo not drawn)
CCCCNc1nccc(-c2c[nH]nc2C)n1
Cc1n[nH]cc1-c1ccnc(NCCc2cccnc2)n1
Cc1ccccc1CNc1nccc(-c2c[nH]nc2C)n1
Cc1n[nH]cc1-c1ccnc(NC2CCN(Cc3ccccc3)C2)n1 (stereo not drawn)
CC(C)c1n[nH]cc1-c1ccnc(N[C@@H](C)c2ccccc2)n1
CC(C)c1n[nH]cc1-c1ccnc(NCCCNC2CCCCC2)n1
CCC(CC)c1[nH]ncc1-c1ccnc(NC2CCN(C)CC2)c1

IC50, < 15 µM:
Cc1n[nH]cc1-c1ccnc(NCCOc2ccccc2)n1
Cc1n[nH]cc1-c1ccnc(NCCC#N)n1
COc1ccccc1CNc1nccc(-c2c[nH]nc2C)n1
CC(C)c1[nH]ncc1-c1ccnc(NC2CCN(Cc3ccccc3)CC2)c1
Cc1n[nH]cc1-c1ccnc(NCCCO)n1
CC(C)c1[nH]ncc1-c1ccnc(NC2CCN(C)CC2)c1
Cc1n[nH]cc1-c1ccnc(NCc2ccncc2)n1
Cc1n[nH]cc1-c1ccnc(NC2CCN(C)CC2)n1
Cc1n[nH]cc1-c1ccnc(NCc2ccccc2)n1
CN1CCC(Nc2cc(-c3cn[nH]c3C(C)(C)C)ccn2)CC1

IC50, < 5 µM:
Cc1n[nH]cc1-c1ccnc(NCc2cc(F)cc(F)c2)n1
CC(C)c1[nH]ncc1-c1ccnc(NCc2ccccc2)c1
CC(C)c1n[nH]cc1-c1ccnc(NCc2ccccc2C(F)(F)F)n1
CC(CCCC(C)(C)O)Nc1nccc(-c2c[nH]nc2C(C)C)n1 (stereo not drawn)
CC(C)c1[nH]ncc1-c1ccnc(NCc2cc(F)cc(F)c2)c1
c1ccc2c(c1)CCC2Nc1cc(-c2cn[nH]c2C2CC2)ccn1 (stereo not drawn)
CCC(Nc1nccc(-c2c[nH]nc2C(C)C)n1)c1ccccc1 (stereo not drawn)
CC(C)c1n[nH]cc1-c1ccnc(NCc2c(F)cccc2F)n1
Cc1ccc(CNc2cc(-c3cn[nH]c3C(C)C)ccn2)cc1
Cc1n[nH]cc1-c1ccnc(NC2CCC2)n1
CC(C)c1[nH]ncc1-c1ccnc(NCC2CC2)c1
Cc1ccccc1CNc1cc(-c2cn[nH]c2C2CCCC2)ccn1
Cc1ccccc1CNc1cc(-c2cn[nH]c2C2CC2)ccn1
CC(C)c1n[nH]cc1-c1ccnc(NC(C)c2ccccc2)n1 (stereo not drawn)
Cc1ccccc1CNc1cc(-c2cn[nH]c2C(C)C)ccn1
Cc1n[nH]cc1-c1ccnc(NC2CCCNC2)n1 (stereo not drawn)
CCC(CC)c1[nH]ncc1-c1ccnc(NC2CCN(C(=O)OC(C)(C)C)CC2)c1
COCCCNc1cc(-c2cn[nH]c2C(C)C)ccn1
CC(C)c1[nH]ncc1-c1ccnc(NCc2ccc3c(c2)OCO3)c1
CC(C)c1[nH]ncc1-c1ccnc(NCC2CCCCC2)c1
CC(C)CCNc1cc(-c2cn[nH]c2C(C)C)ccn1
CC(C)c1[nH]ncc1-c1ccnc(NCc2cccc(C(F)(F)F)c2)c1
CC(C)c1n[nH]cc1-c1nc(NC2CCN(C)CC2)ncc1Br
